# Results published in patent US6365582B1, “S-substitute 11β-benzaldoxime-estra-4, 9-diene-carbonic acid thiolesters, method for the production thereof and pharmaceutical preparations containing these compounds” (Jenapharm GmbH & Co. KG, priority 1998, dated 2002).
# Tests used:
# progesterone receptor = biological target: T1, progesterone receptor (Oryctolagus cuniculus, UniProt P06186); assay: Receptor binding affinity, progesterone receptor (competitive binding, uterus cytosol); conditions: Progesterone = 100%; uterus cytosol of estradiol-primed rabbit; tracer 3H-ORG 2058
# T1 construct: receptors in the cytosol of animal target organs; from tissue; host or cells: uterus cytosol of the estradiol-primed rabbit
# T1 sequence (P06186 1-930): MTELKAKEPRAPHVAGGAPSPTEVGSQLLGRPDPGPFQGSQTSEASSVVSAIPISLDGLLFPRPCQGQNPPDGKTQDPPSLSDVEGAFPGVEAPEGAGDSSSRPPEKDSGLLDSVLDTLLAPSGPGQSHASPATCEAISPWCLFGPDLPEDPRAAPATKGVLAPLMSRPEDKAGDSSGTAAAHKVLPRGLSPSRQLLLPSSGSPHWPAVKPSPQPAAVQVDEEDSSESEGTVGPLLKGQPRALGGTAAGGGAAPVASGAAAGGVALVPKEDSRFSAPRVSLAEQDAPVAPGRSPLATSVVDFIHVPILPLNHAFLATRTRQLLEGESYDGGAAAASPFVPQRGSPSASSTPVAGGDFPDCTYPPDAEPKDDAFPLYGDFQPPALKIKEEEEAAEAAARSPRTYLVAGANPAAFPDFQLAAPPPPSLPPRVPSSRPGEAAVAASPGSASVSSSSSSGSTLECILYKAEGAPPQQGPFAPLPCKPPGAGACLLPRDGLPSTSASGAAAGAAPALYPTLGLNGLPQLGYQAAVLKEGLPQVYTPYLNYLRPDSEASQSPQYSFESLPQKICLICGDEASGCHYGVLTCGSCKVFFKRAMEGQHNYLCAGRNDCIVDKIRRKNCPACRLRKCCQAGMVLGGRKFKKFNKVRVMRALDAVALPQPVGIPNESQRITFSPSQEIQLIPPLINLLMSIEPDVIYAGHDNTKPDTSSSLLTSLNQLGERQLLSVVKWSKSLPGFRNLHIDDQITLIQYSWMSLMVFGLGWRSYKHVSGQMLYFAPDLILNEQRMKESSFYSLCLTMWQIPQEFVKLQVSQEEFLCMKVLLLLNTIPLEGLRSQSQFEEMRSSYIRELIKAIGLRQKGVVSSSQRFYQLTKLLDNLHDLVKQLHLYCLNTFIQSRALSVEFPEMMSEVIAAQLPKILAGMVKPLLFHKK
# Method: (§1) Measurement of the receptor binding affinity
# (§2) The receptor binding affinity was determined by competitive binding of a specifically binding ^3H-labeled hormone (tracer) and the compound to be tested to receptors in the cytosol of animal target organs. Receptor saturation and reaction equilibrium were aimed at here. The following incubation conditions were chosen:
# Progesterone receptor Uterus cytosol of the estradiol-primed rabbit, stored at −30° C.
# Buffer for homogenization and incubation: TED buffer 20 mM tris/HCl, pH [sic]=7.4; 1 mM ethylenediamine tetracetate, 2 mM dithiothreitol) containing 250 mM sucrose.
# Reference substance: progesterone.
# (§3) After an incubation of receptor fraction, tracer and competitor for 18 h at 0-4° C., the bound and free steroid were separated by mixing in active carbon/dextran (1%/0.1%), centrifuging off and measuring the receptor-bound ^3H activity in the supernatant.
# glucocorticoid receptor = biological target: T2, glucocorticoid receptor (Rattus norvegicus, UniProt P06536); assay: Receptor binding affinity, glucocorticoid receptor (competitive binding, thymus cytosol); conditions: Dexamethasone = 100%; thymus cytosol of adrenalectomized rat; tracer 3H-dexamethasone
# T2 construct: receptors in the cytosol of animal target organs; from tissue; host or cells: thymus cytosol of the adrenalectomized rat
# T2 sequence (P06536 1-795): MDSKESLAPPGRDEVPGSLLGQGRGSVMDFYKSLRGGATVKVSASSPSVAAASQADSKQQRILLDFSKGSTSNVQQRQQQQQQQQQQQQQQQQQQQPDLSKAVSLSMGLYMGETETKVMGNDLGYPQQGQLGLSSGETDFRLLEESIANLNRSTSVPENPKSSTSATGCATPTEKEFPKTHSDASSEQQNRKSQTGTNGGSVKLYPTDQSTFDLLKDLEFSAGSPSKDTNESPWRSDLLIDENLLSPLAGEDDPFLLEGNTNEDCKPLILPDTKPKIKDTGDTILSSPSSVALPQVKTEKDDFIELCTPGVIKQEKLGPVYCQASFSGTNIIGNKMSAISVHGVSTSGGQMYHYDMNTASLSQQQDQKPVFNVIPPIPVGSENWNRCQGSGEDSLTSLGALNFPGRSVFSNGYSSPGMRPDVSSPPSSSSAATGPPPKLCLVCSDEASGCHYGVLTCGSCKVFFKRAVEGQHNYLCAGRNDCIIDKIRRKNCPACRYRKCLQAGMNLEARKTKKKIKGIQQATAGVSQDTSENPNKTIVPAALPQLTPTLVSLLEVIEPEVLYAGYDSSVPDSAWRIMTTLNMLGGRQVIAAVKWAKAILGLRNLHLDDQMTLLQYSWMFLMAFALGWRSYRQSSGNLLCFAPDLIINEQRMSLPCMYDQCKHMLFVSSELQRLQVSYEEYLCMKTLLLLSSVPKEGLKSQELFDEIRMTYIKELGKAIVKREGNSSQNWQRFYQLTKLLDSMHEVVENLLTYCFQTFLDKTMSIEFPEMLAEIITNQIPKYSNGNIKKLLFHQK
# Method: as §1, §2
# Glucocorticoid receptor: Thymus cytosol of the adrenalectomized rat. Thymi stored at −30° C.
# Tracer: ^3H-dexamethasone, 20 nM.
# Reference substance: dexamethasone.
# as §3
# [1] = system: early pregnancy in the rat; assay: Inhibition of early pregnancy in the rat (early abortive action); format: in vivo; conditions: s.c., day 5-7 of pregnancy
# Method: Inhibition of early pregnancy in the rat Female rats weighing 180-200 g were mated in the proestrus stage. On detection of sperm in the vaginal region on the next day, this is set as day 1 (d=1) of the pregnancy. The rats are treated with test substance or vehicle using 0.2 ml of benzoyl benzoate/castor oil (1+4 v/v) subcutaneously from day 5 to day 7 (d5-d7); autopsy is carried oust painlessly on day d9. The uterus horns was [sic] dissected and examined for intact or damaged nidation sites.
Compound,Relative molar binding affinity RBA (%) to the progesterone receptor (progesterone receptor),Relative molar binding affinity RBA (%) to the glucocorticoid receptor (glucocorticoid receptor),Complete inhibition of pregnancy % ([1]; 1 mg/(animal × day)),Complete inhibition of pregnancy N#/N (non-gravid/mated females) ([1]; 1 mg/(animal × day)),Complete inhibition of pregnancy % ([1]; 3 mg/(animal × day)),Complete inhibition of pregnancy N#/N (non-gravid/mated females) ([1]; 3 mg/(animal × day)),Complete inhibition of pregnancy % ([1]; 0.3 mg/(animal × day)),Complete inhibition of pregnancy N#/N (non-gravid/mated females) ([1]; 0.3 mg/(animal × day))
"COCC1(OC)CCC2C3CCC4=CC(=O)CCC4=C3C(c3ccc(C=NOC(=O)SC)cc3)CC21C (stereo not drawn) [Example 1, 4-[17β-Methoxy-17α-(methoxymethyl)-3-oxoestra-4,9-dien-11β-yl]benzaldehyde 1-(E)-[O-(methylthio)carbonyl]oxime]",159%,49%,–,–,–,–,–,–
"CCSC(=O)ON=Cc1ccc(C2CC3(C)C(CCC3(O)COC)C3CCC4=CC(=O)CCC4=C23)cc1 (stereo not drawn) [Example 4, 4-[17β-Hydroxy-17α-(methoxymethyl)-3-oxoestra-4,9-dien-11β-yl]benzaldehyde 1-(E)-[O-(ethylthio)carbonyl]oxime]",44%,53%,–,–,–,–,–,–
CCSC(=O)O/N=C/c1ccc([C@H]2C[C@@]3(C)[C@@H](CC[C@@]3(O)CC#N)[C@@H]3CCC4=CC(=O)CCC4=C32)cc1 [Example 7],42%,2%,0%,0/5,0%,0/5,–,–
"CCSC(=O)OC[C@]1(O)CC[C@H]2[C@@H]3CCC4=CC(=O)CCC4=C3[C@@H](c3ccc(/C=N/OC(=O)SCC)cc3)C[C@@]21C [Example 8, 4-{17β-Hydroxy-17α-[(ethylthiocarbonyloxy)methyl]3-oxoestra-4,9-dien-11β-yl]benzaldehyde 1-(E)-[O-(ethylthio)carbonyl]oxime]",74%,32%,–,–,–,–,–,–
"CCSC(=O)ON=Cc1ccc(C2CC3(C)C(CCC3(O)CCl)C3CCC4=CC(=O)CCC4=C23)cc1 (stereo not drawn) [Example 6, 4-[17β-Hydroxy-17α-(chloromethyl)-3-oxoestra-4,9-dien-11β-yl]benzaldehyde 1-(E)-[O-(ethylthio)carbonyl]oxime]",64%,22%,–,–,–,–,–,–
"COC[C@]1(OC)CC[C@H]2[C@@H]3CCC4=CC(=O)CCC4=C3[C@@H](c3ccc(/C=N/O)cc3)C[C@@]21C [J 867, 11β-[4-(hydroximinomethyl)phenyl]-17β-methoxy-17α-methoxymethyl-estra-4,9-dien-3-one, reference compound]",302%,77%,100%,5/5,100%,5/5,0%,0/5
"COC[C@@]1(O)CC[C@H]2[C@@H]3CCC4=CC(=O)CCC4=C3[C@@H](c3ccc(/C=N/OC(=O)SC)cc3)C[C@@]21C [Example 2, 4-[17β-Hydroxy-17α-(methoxymethyl)-3-oxoestra-4,9-dien-11β-yl]benzaldehyde 1-(E)-[O-(methylthio)carbonyl]oxime]",185%,52%,–,–,0%,0/4,–,–
"CCSC(=O)ON=Cc1ccc(C2CC3(C)C(CCC3(O)CN=[N+]=[N-])C3CCC4=CC(=O)CCC4=C23)cc1 (stereo not drawn) [Example 5, 4-[17β-Hydroxy-17α-(azidomethyl)-3-oxoestra-4,9-dien-11β-yl]benzaldehyde-1-(E)-[O-(ethylthio)carbonyl]oxime]",77%,20%,–,–,–,–,–,–
